Biological target: Human TrkA Protein (Homo sapiens (Human), UniProt P04629)
Test: Evaluation of Binding Activity for Human TrkA Protein (TrkA LanthaScreen Eu Kinase Binding Assay)
Conditions: TrkA enzyme, Kinase Tracer 236, TR-FRET, 60 minutes at room temperature
Procedure: (Pharmacological Experimental Example 1): Evaluation of Binding Activity for Human TrkA Protein
Measurement was carried out using TrkA LanthaScreen (registered trademark) Eu Kinase Binding Assay (ThermoFisher SCIENTIFIC). To a 384 well plate (Corning), 2.5 μL of the test compound having various concentrations and diluted with Kinase buffer (ThermoFisher SCIENTIFIC) and 2.5 μL of 15 nM TrkA enzyme (ThermoFisher SCIENTIFIC) were added. Moreover, […] Eu-anti-His Tag antibody (ThermoFisher SCIENTIFIC) and 5 μL of 30 nM Kinase (registered trademark) Tracer 236 (ThermoFisher SCIENTIFIC) were added, followed by reaction at room temperature for 60 minutes. After the reaction, the fluorescence intensity of Europium (Emission wavelength 615 nm) and TR-FRET (Emission wavelength 665 nm) with an excitation wavelength of 340 nm were measured with EnVision 2100 (PerkinElmer) to calculate the fluorescence ratio as the amount of the test compound and the TrkA enzyme bonded. The inhibitory activity (IC50 value) of each test compound was calculated with the fluorescence ratio of the well to which a solvent was added instead of the test compound being 0% and the fluorescence ratio of the well without addition of the TrkA protein being 100%.
In Table 1, […] mean Compounds 1 to 62 synthesized in accordance with Examples 1 to 62 described later.

Chain of Human TrkA Protein (P04629 33-796): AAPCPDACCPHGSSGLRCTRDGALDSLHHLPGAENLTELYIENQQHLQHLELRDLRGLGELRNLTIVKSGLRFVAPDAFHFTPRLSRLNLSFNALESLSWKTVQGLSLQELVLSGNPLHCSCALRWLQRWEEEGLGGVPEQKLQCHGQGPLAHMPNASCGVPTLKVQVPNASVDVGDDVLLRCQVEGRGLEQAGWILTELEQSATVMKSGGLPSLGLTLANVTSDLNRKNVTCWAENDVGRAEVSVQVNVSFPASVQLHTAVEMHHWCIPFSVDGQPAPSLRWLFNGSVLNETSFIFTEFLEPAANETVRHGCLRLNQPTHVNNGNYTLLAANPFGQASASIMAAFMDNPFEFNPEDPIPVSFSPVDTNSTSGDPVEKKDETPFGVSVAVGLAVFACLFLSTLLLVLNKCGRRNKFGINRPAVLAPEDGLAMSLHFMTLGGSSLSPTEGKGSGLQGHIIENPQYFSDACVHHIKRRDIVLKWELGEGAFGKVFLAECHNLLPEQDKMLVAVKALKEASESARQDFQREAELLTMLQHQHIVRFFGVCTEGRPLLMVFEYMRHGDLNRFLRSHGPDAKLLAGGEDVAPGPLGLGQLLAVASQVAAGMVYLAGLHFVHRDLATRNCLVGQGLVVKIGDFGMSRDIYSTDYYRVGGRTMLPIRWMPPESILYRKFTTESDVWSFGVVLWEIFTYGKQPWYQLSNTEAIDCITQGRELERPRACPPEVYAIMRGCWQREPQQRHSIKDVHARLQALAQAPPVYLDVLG

## Cc1cc(NC(=O)N[C@@H]2c3ccccc3C(C)(C)C[C@H]2O)c(-c2ccccc2)nc1-c1cnc(O)nc1 [Compound 19, 1-((1R,2R)-2-hydroxy-4,4-dimethyl-1,2,3,4-tetrahydronaphthalen-1-yl)-3-(6-(2-hydroxypyrimidin-5-yl)-5-methyl-2-phenylpyridin-3-yl)urea]
  IC50: ≤ 50 nM

## Cc1cc(NC(=O)N[C@@H]2c3ccccc3C(C)(C)C[C@H]2O)c(-c2ccccc2)nc1-c1cnn(C)c1 [Compound 10, 1-((1R,2R)-2-hydroxy-4,4-dimethyl-1,2,3,4-tetrahydronaphthalen-1-yl)-3-(5-methyl-6-(1-methyl-1H-pyrazol-4-yl)-2-phenylpyridin-3-yl)urea]
  IC50: ≤ 50 nM

## Cc1cnc(-c2ccccc2)c(NC(=O)N[C@@H]2c3ccc(Br)cc3C(C)(C)C[C@H]2O)c1 (racemic) [Compound 22, rac-1-((1R,2R)-6-bromo-2-hydroxy-4,4-dimethyl-1,2,3,4-tetrahydronaphthalen-1-yl)-3-(5-methyl-2-phenylpyridin-3-yl)urea]
  IC50: ≤ 50 nM

## Cc1cc(NC(=O)N[C@@H]2c3cc(F)c(F)cc3C(C)(C)C[C@H]2O)c(-c2ccccc2)nc1C(N)=O (racemic) [Compound 40, rac-5-(3-((1R,2R)-6,7-difluoro-2-hydroxy-4,4-dimethyl-1,2,3,4-tetrahydronaphthalen-1-yl)ureido)-3-methyl-6-phenylpicolinamide]
  IC50: ≤ 50 nM

## Cc1ncc(-c2nc(-c3ccccc3)c(NC(=O)N[C@@H]3c4cc(F)c(F)cc4C(C)(C)C[C@H]3O)cc2C)cn1 (racemic) [Compound 44, rac-1-((1R,2R)-6,7-difluoro-2-hydroxy-4,4-dimethyl-1,2,3,4-tetrahydronaphthalen-1-yl)-3-(5-methyl-6-(2-methylpyrimidin-5-yl)-2-phenylpyridin-3-yl)urea]
  IC50: ≤ 50 nM

## Cc1cnc(-c2ccccc2)c(NC(=O)N[C@@H]2c3cc(F)c(F)cc3C(C)(C)C[C@H]2O)c1 (racemic) [Compound 37a]
  IC50: ≤ 50 nM

## Cc1cnc(-c2ccccc2)c(NC(=O)N[C@@H]2c3ccccc3C(C)(C)C[C@H]2O)c1 [Compound 7, 1-((1R,2R)-2-hydroxy-4,4-dimethyl-1,2,3,4-tetrahydronaphthalen-1-yl)-3-(5-methyl-2-phenylpyridin-3-yl)urea]
  IC50: ≤ 50 nM

## Cc1cc(NC(=O)N[C@@H]2c3ccccc3C(C)(C)C[C@H]2O)c(-c2ccccc2)nc1-c1cnc(C(C)(C)O)nc1 [Compound 21, 1-((1R,2R)-2-hydroxy-4,4-dimethyl-1,2,3,4-tetrahydronaphthalen-1-yl)-3-(6-(2-(2-hydroxypropan-2-yl)pyrimidin-5-yl)-5-methyl-2-phenylpyridin-3-yl)urea]
  IC50: ≤ 50 nM

## Cc1cc(NC(=O)N[C@@H]2c3ccccc3C(C)(C)C[C@H]2O)c(-c2ccccc2)nc1-c1ccc(S(C)(=O)=O)nc1 [Compound 14, 1-((1R,2R)-2-hydroxy-4,4-dimethyl-1,2,3,4-tetrahydronaphthalen-1-yl)-3-(3-methyl-6′-(methylsulfonyl)-6-phenyl-[2,3′-bipyridin]-5-yl)urea]
  IC50: ≤ 50 nM

## Cc1cc(NC(=O)N[C@@H]2c3ccccc3C(C)(C)C[C@H]2O)c(C2CCOCC2)nc1-c1ccc(O)nc1 (racemic) [Compound 31, rac-1-(6′-hydroxy-3-methyl-6-(tetrahydro-2H-pyran-4-yl)-[2,3′-bipyridin]-5-yl)-3-((1R,2R)-2-hydroxy-4,4-dimethyl-1,2,3,4-tetrahydronaphthalen-1-yl)urea]
  IC50: ≤ 50 nM

## rac-1-((1R,2R)-6,7-difluoro-2-hydroxy-4,4-dimethyl-1,2,3,4-tetrahydronaphthalen-1-yl)-3-(2-(hydroxymethyl)-3-methyl-6-phenyl-[2,4′-bipyridin]-5-yl)urea [Compound 56]
  IC50: ≤ 50 nM

## Cc1cc(NC(=O)N[C@@H]2c3cc(F)c(F)cc3C(C)(C)C[C@H]2O)c(-c2ccccc2)nc1-c1ccn(C)n1 (racemic) [Compound 48a]
  IC50: ≤ 50 nM

## Cc1cc(NC(=O)N[C@@H]2c3ccccc3C(C)(C)C[C@H]2O)c(-c2ccccc2)nc1-c1cn[nH]c1 [Compound 18, 1-((1R,2R)-2-hydroxy-4,4-dimethyl-1,2,3,4-tetrahydronaphthalen-1-yl)-3-(5-methyl-2-phenyl-6-(1H-pyrazol-4-yl)pyridin-3-yl)urea]
  IC50: ≤ 50 nM

## Cc1ncc(-c2nc(-c3ccccc3)c(NC(=O)N[C@@H]3c4cc(F)c(F)cc4C(C)(C)C[C@H]3O)cc2C)cn1 (racemic) [Compound 44a]
  IC50: ≤ 50 nM

## Cc1cc(NC(=O)N[C@@H]2c3ccccc3C(C)(C)C[C@H]2O)c(-c2ccccc2)nc1C(=O)NCC(C)(C)O (racemic) [Compound 25, rac-N-(2-hydroxy-2-methylpropyl)-5-(3-((1R,2R)-2-hydroxy-4,4-dimethyl-1,2,3,4-tetrahydronaphthalen-1-yl)ureido)-3-methyl-6-phenylpicolinamide]
  IC50: ≤ 50 nM

## Cc1cc(NC(=O)N[C@@H]2c3ccccc3C(C)(C)C[C@H]2O)c(C2CCOCC2)nc1-c1cn[nH]c1 (racemic) [Compound 30, rac-1-((1R,2R)-2-hydroxy-4,4-dimethyl-1,2,3,4-tetrahydronaphthalen-1-yl)-3-(5-methyl-6-(1H-pyrazol-4-yl)-2-(tetrahydro-2H-pyran-4-yl)pyridin-3-yl)urea]
  IC50: ≤ 50 nM

## Cc1cc(NC(=O)N[C@@H]2c3ccccc3C(C)(C)C[C@H]2O)c(-c2ccccc2)nc1-c1cn[nH]c1 (racemic) [Compound 5, rac-1-((1R,2R)-2-hydroxy-4,4-dimethyl-1,2,3,4-tetrahydronaphthalen-1-yl)-3-(5-methyl-6-(1H-pyrazol-4-yl)-2-phenylpyridin-3-yl)urea]
  IC50: ≤ 50 nM

## Cc1ccc(-c2nc(-c3ccccc3)c(NC(=O)N[C@@H]3c4ccccc4C(C)(C)C[C@H]3O)cc2C)cn1 [Compound 12, 1-(3,6′-dimethyl-6-phenyl-[2,3′-bipyridin]-5-yl)-3-((1R,2R)-2-hydroxy-4,4-dimethyl-1,2,3,4-tetrahydronaphthalen-1-yl)urea]
  IC50: ≤ 50 nM

## Cc1cc(NC(=O)N[C@@H]2c3ccccc3C(C)(C)C[C@H]2O)c(-c2ccccc2)nc1-c1ccnc(C(F)(F)F)c1 [Compound 17, 1-((1R,2R)-2-hydroxy-4,4-dimethyl-1,2,3,4-tetrahydronaphthalen-1-yl)-3-(3-methyl-6-phenyl-2′-(trifluoromethyl)-[2,4′-bipyridin]-5-yl)urea]
  IC50: ≤ 50 nM

## Cc1cc(NC(=O)N[C@@H]2c3ccc(Br)cc3C(C)(C)C[C@H]2O)c(-c2ccccc2)nc1C(N)=O (racemic) [Compound 23, rac-5-(3-((1R,2R)-6-bromo-2-hydroxy-4,4-dimethyl-1,2,3,4-tetrahydronaphthalen-1-yl)ureido)-3-methyl-6-phenylpicolinamide]
  IC50: ≤ 50 nM

## Cc1cc(NC(=O)N[C@@H]2c3cc(F)c(F)cc3C(C)(C)C[C@H]2O)c(C2CCOCC2)nc1C(N)=O (racemic) [Compound 58, rac-5-(3-((1R,2R)-6,7-difluoro-2-hydroxy-4,4-dimethyl-1,2,3,4-tetrahydronaphthalen-1-yl)ureido)-3-methyl-6-(tetrahydro-2H-pyran-4-yl)picolinamide]
  IC50: 50 to 1000 nM

## Cc1cc(NC(=O)N[C@@H]2c3cc(F)c(F)cc3C(C)(C)C[C@H]2O)c(-c2ccccc2)nc1-c1ccn(C)n1 (racemic) [Compound 48, rac-1-((1R,2R)-6,7-difluoro-2-hydroxy-4,4-dimethyl-1,2,3,4-tetrahydronaphthalen-1-yl)-3-(5-methyl-6-(1-methyl-1H-pyrazol-3-yl)-2-phenylpyridin-3-yl)urea]
  IC50: ≤ 50 nM

## Cc1cnc(-c2ccccc2)c(NC(=O)N[C@@H]2c3cc(Br)ccc3C(C)(C)C[C@H]2O)c1 (racemic) [Compound 32, rac-1-((1R,2R)-7-bromo-2-hydroxy-4,4-dimethyl-1,2,3,4-tetrahydronaphthalen-1-yl)-3-(5-methyl-2-phenylpyridin-3-yl)urea]
  IC50: ≤ 50 nM

## Cc1ncc(-c2nc(-c3ccccc3)c(NC(=O)N[C@@H]3c4ccccc4C(C)(C)C[C@H]3O)cc2C)cn1 [Compound 9, 1-((1R,2R)-2-hydroxy-4,4-dimethyl-1,2,3,4-tetrahydronaphthalen-1-yl)-3-(5-methyl-6-(2-methylpyrimidin-5-yl)-2-phenylpyridin-3-yl)urea]
  IC50: ≤ 50 nM

## Cc1cc(NC(=O)N[C@@H]2c3ccccc3C(C)(C)C[C@H]2O)c(-c2ccccc2)nc1-c1ccc(O)nc1 [Compound 20, 1-(6′-hydroxy-3-methyl-6-phenyl-[2,3′-bipyridin]-5-yl)-3-((1R,2R)-2-hydroxy-4,4-dimethyl-1,2,3,4-tetrahydronaphthalen-1-yl)urea]
  IC50: ≤ 50 nM

## Cc1cc(NC(=O)N[C@@H]2c3cc(F)c(F)cc3C(C)(C)C[C@H]2O)c(-c2ccccc2)nc1-c1cnc(C(C)(C)O)nc1 (racemic) [Compound 54, rac-1-((1R,2R)-6,7-difluoro-2-hydroxy-4,4-dimethyl-1,2,3,4-tetrahydronaphthalen-1-yl)-3-(6-(2-(2-hydroxypropan-2-yl)pyrimidin-5-yl)-5-methyl-2-phenylpyridin-3-yl)urea]
  IC50: ≤ 50 nM

## Cc1cc(NC(=O)N[C@@H]2c3ccccc3C(C)(C)C[C@H]2O)c(-c2ccccc2)nc1-c1ccc(C#N)nc1 [Compound 13, 1-(6′-cyano-3-methyl-6-phenyl-[2,3′-bipyridin]-5-yl)-3-((1R,2R)-2-hydroxy-4,4-dimethyl-1,2,3,4-tetrahydronaphthalen-1-yl)urea]
  IC50: ≤ 50 nM
